The values that follow come from patent US20230087766A1, “METHODS OF REACTIVATING LATENT HUMAN IMMUNODEFICIENCY VIRUS AND RELATED COMPOSITIONS” (priority 2017, published 2023).

For test [1], the system named is latent HIV (HIV LTR-driven transcription) in J-Lat A1 cells. The class given is cell-based. The procedure:
(§1) Cell culture: J-Lat Al cells (derived from Jurkat cells harboring HIV LTR-Tat-GFP gene) and U1 cells (promonocytic cell line harboring one copy of HIV genome with defective tat gene) were obtained from NIH AIDS Reagent Program and cultured at 37° C. with 5% CO2 in RPM11640 medium containing 10% FBS and 1% penicillin-streptomycin as previously described (see G. Jiang, et al. PLoS Pathogens 11, e1005066 (2015)).
(§2) For inhibiting ACSS2 and crotonylation, cells were pretreated with ACSS2 inhibitor, AR12 (SELLECK CHEMICALS™, Houston, Tex.), for 30 minutes, followed by Na-Cro treatment for 4 or 18 hours.
Real-Time PCR Analysis: HIV gene expression was measured using real-time PCR in J-Lat Al cells treated with LRAs. Total nucleic acid was extracted using RNEASY™ Kit, genomic DNA digested using DNase I and total RNA reverse transcribed using Superscript III to synthesize cDNA. […] […] TAMRA-3′ (SEQ ID NO:3).

The test system of a further test is latent HIV in U1 cells. As to the kind of experiment: p24 ELISA in U1 cells. Type of test: cell-based. As to conditions: day 6. The procedure: as §1, §2
Test [2] concerns histone tails and transcription factors in J-Lat A1 cells. As to the kind of experiment: Western blot of global histone modifications and transcription factors. Type of test: cell-based. An excerpt: FIG. 2 is a series of images and graphs showing that histone crotonylation by sodium crotonate addition re-programs histone tails at the HIV LTR. Panel A illustrates that Na-Cro addition increased global expression of H3K4Cro, H3K4Ac, and H3K18Ac while decreasing H3K27Me3. Panel B illustrates expression of transcription factors after Na-Cro addition in J-Lat Al cells. Panels C-E illustrate that Na-Cro addition re-programmed histone tails at the HIV LTR. Chromatin immunoprecipitation (ChIP) assay was performed by using anti-H3K4Cr, anti-H3K4Ac, and anti-H3K27Me3 antibodies after J-Lat Al cells were treated with 30 mM Na-Cro for 4 hours. PCR primers were specific for the HIV LTR region.
Western Blot Analysis: Western blot analysis was performed by using one million cells treated with LRAs for 6 or 18 hours. Whole cell lysates were prepared using RIPA buffer. Nuclear Extracts were prepared using EPIQUIK™ Total Histone Extraction Kit ([…]™, Farmingdale N.Y.). Antibodies (CELL SIGNALING TECHNOLOGY®, Boston, Mass.) for Cyclin T1, CDK9, CDK9-P, NF-kB, GAPDH, and total H3 were used to detect protein expression under different drug conditions. Antibodies for H3K4Cro (PTM BIOLABS™, Chicago, Ill.), H3K27Me3 (CELL SIGNALING TECHNOLOGY®), H3K4Ac (CELL SIGNALING TECHNOLOGY®), and H3K18Ac (CELL SIGNALING TECHNOLOGY®) were used to measure histone modifications.
(Immunoblotting shows a protein as a band on a membrane.)

The next test relates to ACSS2. Briefly: ACSS2 expression in J-Lat A1 cells. Type of test: cell-based. As to conditions: Na-Cro treatment. An excerpt:
FIG. 3 is a series of graphs showing that suppression of acetyl-CoA synthetase 2 (ACSS2) enzyme disrupts crotonyl-CoA induced reactivation of latent HIV. Panel A illustrates that Na-Cro addition to J-Lat Al cells increased expression of ACSS2 enzyme. **, p<0.01 compared with control treatment. Panel B illustrates expression of ACSS2 after ACSS2 siRNA knockdown in TZM-bl HIV reporter cells. **, p<0.01 compared with control siRNA. Panel C illustrates knockdown of ACSS2 decreased Na-Cro-driven HIV transcription. *, p<0.05 compared with control siRNA. Panels D and E illustrate that pretreatment with ACSS2 inhibitor, AR12, dampens reactivation of latent HIV (see panel D) by inhibition of histone crotonylation (see panel E) at the HIV LTR. **, p<0.01 and ***, p<0.001, compared with control treatment. ##, p<0.01 and ###, p<0.001 compared with Na-Cro treatment.

Test [3] concerns T cells in PBMCs from healthy HIV-negative donors. As to the kind of experiment: Immune activation and checkpoint markers in PBMCs by flow cytometry. Type of test: cell-based, human. How it is done:
PBMCs from healthy HIV-negative donors (n=5) were treated with 100 ng/ml PMA 2 plus 2 μg/ml ionomycin, 30 mM Na-Cro overnight, and analyzed by flow cytometry for the expression of CD4, CD8, HLA-DR, CD69, or PD-1 in CD3+ T cells. Percentage of cells expressing immune activation markers was presented for CD3+ cells (see panel A), CD3+CD4+ T cells (see panel B), and CD3+ CD8+ T cells (see panel C). ***, p<0.001, compared with control after 24 or 72 hour treatment.
It was examined whether induction of histone crotonylation in T cells impacted the level of immune activation in these cells. Peripheral blood mononuclear cells from HIV-negative healthy donors (n=5) were treated with PMA/Ionomycin or Na-Cro for 24 hours or 72 hours. Changes in the immune cell status were examined by measuring the levels of HLA-DR, CD69, and PD-1 in the T cell subsets by flow cytometric analysis (see FIG. 9). […] Instead, it is associated with the suppression of immune activation, which may have a beneficial effect on patient immune function.
(In flow cytometry, cells or beads pass a laser one at a time.)

Where [4] appears, read: healthy donors n=5, 30 mM Na-Cro.

As for `C/C=C/C(=O)[O-].[Na+]` [Na-Cro, sodium crotonate], the “induction of HIV LTR-driven transcription” value in test [1] (J-Lat A1 and U1 cell cultures) is on record as “dose-dependent manner”. In addition, in test [1] (J-Lat A1 cells, 30 mM Na-Cro, 500 nM SAHA, 2 μM GSK343 or 5 μM AZA-dc, RT-qPCR), the “reactivation of latent HIV by epigenetic modifiers” value is reported as “comparable capacity to reactivate latent HIV”. The “increase in HIV transcription compared to untreated controls” value in test [1] (J-Lat A1 cells, Na-Cro at 40 mM) worked out at 12 fold. In test [1] (Na-Cro alone, AR12 experiment (FIG. 3, panel D)), the “HIV reactivation compared to the control” value is listed as 8 fold. In addition, the p24 antigen entry with latent HIV in U1 cells (20 mM Na-Cro) is listed as “over 500 pg/mL”. This molecule also came in with a p24 antigen with latent HIV in U1 cells (40 mM Na-Cro) of over 2000 pg/mL. The “expression of transcription factors involved in HIV transcription” value in test [2] (J-Lat A1 cells) was “did not alter transcription factors that are involved in HIV transcription except a minor induction of CDK9 protein”. In test [2] (Na-Cro-treated T cells), the “global H3K4 acetylation” value is listed as “increased”, the “global H3K4 crotonylation” value is recorded as “increased”, the “global H3K18 acetylation” value is “increased” and the “global H3K27 trimethylation” value is given as “markedly decreased”. Also, in the test with ACSS2, the “increase in ACSS2 expression” value stood at 70 fold. Further, in test [3] (setting [4]), the “HLA-DR expression in CD4+ or CD8+ T cells” value is “inhibited HLA-DR expression at 24 and 72 hours”; the “PD-1 expression in CD3+ T cells” value is “did not change”; the “PD-1 expression in CD4+ or CD8+ T cells” value was “did not modulate PD-1 expression”. Besides, the “HLA-DR expression in CD3+ T cells” value in test [3] (healthy donors n=5, 30 mM Na-Cro or PMA plus ionomycin, 24 or 72 hours) is reported as “suppressed HLA-DR expression at 72 hours post-treatment”.
